# Tests used:
# Type in all cases: functional
# Mus musculus [1] = assay: Analgesic activity in Mus musculus Swiss albino (mouse) assessed as protection against acetic acid-induced writhing response at 20 mg/kg, po administered 30 min before acetic acid challenge measured at 2 hr after challenge
# Mus musculus [2] = assay: Analgesic activity in Mus musculus Swiss albino (mouse) assessed as protection against acetic acid-induced writhing response at 20 mg/kg, po administered 30 min before acetic acid challenge measured at 1 hr after challenge
# Mus musculus [3] = assay: Analgesic activity in Mus musculus Swiss albino (mouse) assessed as protection against acetic acid-induced writhing response at 20 mg/kg, po administered 30 min before acetic acid challenge measured at 0.5 hr after challenge
Structure (SMILES),Activity (Mus musculus [1]) [%],Activity (Mus musculus [2]) [%],Activity (Mus musculus [3]) [%]
O=C([O-])Cc1ccccc1Nc1c(Cl)cccc1Cl.[Na+] [DICLOFENAC SODIUM],93.35,96.76,91.13
Nc1nc(-c2ccccc2Br)cc(-c2cc3ccccc3oc2=O)n1,27.7,30.58,23.41
Nc1nc(-c2cccc(Cl)c2)cc(-c2cc3ccccc3oc2=O)n1,56.5,60.58,52.21
Nc1nc(-c2ccc(Cl)cc2)cc(-c2cc3ccccc3oc2=O)n1,10.8,12.35,9.49
COc1ccccc1-c1cc(-c2cc3ccccc3oc2=O)nc(N)n1,33.79,35.58,35.44
Nc1nc(-c2ccc(Br)cc2)cc(-c2cc3ccccc3oc2=O)n1,26.59,29.41,28.16
Nc1nc(-c2ccccc2Cl)cc(-c2cc3ccccc3oc2=O)n1,11.63,12.05,8.22
COc1cccc(-c2cc(-c3cc4ccccc4oc3=O)nc(N)n2)c1,49.3,53.52,46.51
Nc1nc(-c2cccc(Br)c2)cc(-c2cc3ccccc3oc2=O)n1,31.57,33.52,25.94
